Laboratory results published in KR19980042868A, “인슐린-유사 작용을 갖는 이노시톨글리칸” (피셔 한스-위르겐, priority 1996, dated 1998).
pEC50: −log10 of the molar value.

Tests used:
[1] = system: rat adipocytes (랫트 지방 세포); assay: Lipogenesis (지방형성): incorporation of D-[3-3H]glucose into toluene-soluble lipids in isolated rat adipocytes; format: cell-based; conditions: 90 min, 37°C; for pEC50: concentration giving 50% of the compound's own maximum stimulation; for %Insmax: maximum insulin stimulation ratio (with/without insulin) = 100%
[2] = system: rat adipocytes (랫트 지방 세포); assay: Glucose transport (글루코오스 이송): uptake of 2-[3H]-deoxyglucose in isolated rat adipocytes; format: cell-based; conditions: 15 min, 37°C, then 2-[3H]-deoxyglucose at room temperature; for pEC50: concentration giving 50% of the compound's own maximum stimulation; for %Insmax: maximum insulin stimulation ratio = 100%

pEC50 [1] | pEC50 [2] | Substance | %Insmax [1] | %Insmax [2]
4.22 | 4.52 | HO-PO(H)O-6Manα1(Manα1-2)-2Manα1(6-EtNP)-6Manα1(2-EtNP)-4GluNβ1-6(D)이노시톨-1,2-(사이클릭)-포스페이트 | 48% | 34%
4.70 | 4.74 | HO-PO(H)O-6Manα1(Manα1-2)-2Manα1-6Manα1-3GluNβ1-6(L)이노시톨-3-포스페이트 [D] | 33% | 18%
4.82 | 4.60 | HO-PO(H)O-6Manα1(Manα1-2)-2Manα1-6Manα1-4GluNα1-6(L)이노시톨-2-포스페이트 [F] | 53% | 26%
5.15 | 5.00 | HO-PO(H)O-6Manα1(Manα1-2)-2Manα1-6Manα1-4GluNβ1-6(D)이노시톨-1,2-(사이클릭)-티오포스페이트 [C] | 64% | 29%
4.60 | 5.00 | HO-PO(H)O-6Manα1-4GluNα1-6(L)이노시톨 | 15% | 2%
4.82 | 4.82 | HO-PO(H)O-6Manα1-4GluNα1-6(L)이노시톨-1,2-(사이클릭)-포스페이트 | 25% | 9%
4.70 | 4.30 | HO-PO(H)O-6Manα1-6-Manα1-6Manα1-6Manα1-3GluNβ1-6(L)이노시톨-3-포스페이트 [I] | 18% | 14%

Substance | pEC50 [1] | pEC50 [2] | %Insmax [1] | %Insmax [2]
HO-PO(H)O-6Manα1(Manα1-2)-2Manα1-6Manα1-4GluNβ1-6(D)이노시톨-1,2-(사이클릭)-포스페이트 [화합물 B] | 5.09 | 5.09 | 77% | 41%
HO-PO(H)O-6Manα(Manα1-2)-2Manα1-6Manα1-4GluNβ1-6(L)이노시톨-1,2-(사이클릭)-포스페이트 [화합물 A] | 5.15 | 5.10 | 59% | 28%
